In patent publication US11446391B2, “Amphiphilic dye-coated inorganic nanoparticle clusters” (THE TRUSTEES OF THE UNIVERSITY OF PENNSYLVANIA, priority 2017, dated 2022):

Assays:
GBM = GBM patients, PDT; cited from earlier work
[1] = Absorbance spectrum in water (solubility); type: physicochemical
Experimental: FIGS. 22A-22D. (FIG. 22A) Illustration of Ce6-coated SPION nanoclusters (Ce6-SCs). Iron oxide nanoparticles are stabilized in aqueous media by the self-assembly of amphiphilic PS Chlorin e6 on the surface using a microemulsion. (FIG. 22B) Dynamic light scattering (DLS) of Ce6-SCs in water. […] (FIG. 22C) Particle size and T2 relaxation time was monitored for 6 days in water at 25° C. (FIG. 22D) Magnetic resonance (MR) relaxometry measurements of Ce6-SCs. Inset: T2-weighted image of Ce6-SCs at various concentrations in a microplate. (FIG. 22E) Absorbance spectra of Ce6-SCs (black) and free Ce6 (brown) in water. The inset images are vials containing solutions of Ce6-SCs and free Ce6 in water.
Relaxometry measurements indicated an average r2 value of 301±4 mM^−1 s^−1 and MR images of a phantom confirmed strong T2 contrast relative to water (FIG. 22D).

[2] = Vials of free Ce6 or Ce6 nanoclusters in water; type: physicochemical; conditions: equal concentrations of Ce6
Experimental: FIG. 43 is a photograph of vials containing solution with free Ce6 or Ce6 nanoclusters in water (at equal concentrations of Ce6).
The size distribution of Ce6 nanoclusters was measured by dynamic light scattering (DLS) in water at 25° C. (FIG. 39). The amphiphilic Ce6 molecules solubilized the PCL, creating stable nanoclusters with an average hydrodynamic diameter of 58±4 nm and an average polydispersity index (PDI) of <0.2. Fluorescence detection takes place when Ce6 is excited at around 404 nm, which then emits a characteristic reference fluorescence peak at approximately 650 nm (FIG. 40).

[3] = Ce6 at 667 nm, PpIX at 631 nm; in M-1cm-1 (unit assumed); cited from earlier work

Compound	adverse events (GBM)	overall survival (GBM) [months]	solubility in water judged from absorbance spectrum (peak at ~665 nm) [1]	behaviour in water [2]	peak extinction coefficient [3]
C=Cc1c(C)c2cc3nc(c(CC(=O)N[C@@H](CC(=O)O)C(=O)O)c4[nH]c(cc5nc(cc1[nH]2)C(C)=C5CC)c(C)c4C(=O)O)[C@@H](CCC(=O)O)[C@@H]3C [talaporfin, mono-L-aspartyl chlorin e6]	only mild adverse events	24.8			
Chlorin e6 [Ce6]			poor solubility	aggregate and precipitate in water	55,000
